Reference: patent US20260108546A1 (ELI LILLY AND COMPANY, priority 2024, published 2026)

Biological target: T1, hGIP-R (Homo sapiens, UniProt P48546)
T1 construct: expressed in transfected cells; host or cells: HEK-293 clonal cell lines
T1 sequence (P48546 22-466): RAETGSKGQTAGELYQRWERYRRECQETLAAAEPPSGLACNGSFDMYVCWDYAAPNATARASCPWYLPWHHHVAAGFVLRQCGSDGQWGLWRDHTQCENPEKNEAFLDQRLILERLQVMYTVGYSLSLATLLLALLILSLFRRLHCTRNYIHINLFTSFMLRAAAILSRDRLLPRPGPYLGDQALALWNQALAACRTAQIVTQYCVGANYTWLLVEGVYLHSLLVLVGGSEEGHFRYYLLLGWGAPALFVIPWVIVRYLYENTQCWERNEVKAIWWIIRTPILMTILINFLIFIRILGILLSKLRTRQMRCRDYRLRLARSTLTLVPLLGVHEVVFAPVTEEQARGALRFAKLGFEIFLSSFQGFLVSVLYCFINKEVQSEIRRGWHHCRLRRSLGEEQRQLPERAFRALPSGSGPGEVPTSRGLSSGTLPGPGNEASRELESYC
Assay: Functional hGIP-R Assay (cAMP formation, HTRF)
Type: cell-based
Conditions: for Emax: cAMP efficacy, percent of maximal response to GIP(1-42)OH, 37° C., 0.1% bovine casein, arithmetic mean ± SEM; for EC50: cAMP potency, HEK-293 cells expressing hGIP-R, incubated at 37° C. in the presence of 0.1% bovine casein, geometric mean, read-out: Human GIP-R EC50, nM (SEM, n)
In short: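 Relative EC50 and Emax came from four-parameter logistic fits of cAMP as a percent of the human GIP (1-42) OH maximal response. The cAMP was measured by competitive HTRF after 30 min, 37 °C compound exposure of hGIP-R HEK-293 clones in IBMX (250 μM)-containing medium.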

Cn1cc2cc(-c3ccc([C@H]4C[C@@]45CCN([C@H](Cc4cnn(C(F)F)c4)C(=O)NC(C)(C)Cn4nc(C(F)(F)F)cc4-c4cc(F)c6nccn6c4)C5=O)cc3)cnc2n1 [Example 131, (R)-3-(1-(Difluoromethyl)-1H-pyrazol-4-yl)-N-(1-(5-(8-fluoroimidazo[1,2-a]pyridin-6-yl)-3-(trifluoromethyl)-1H-pyrazol-1-yl)-2-methylpropan-2-yl)-2-((1R,3R)-1-(4-(2-methyl-2H-pyrazolo[3,4-b]pyridin-5-yl)phenyl)-4-oxo-5-azaspiro[2.4]heptan-5-yl)propanamide]
Emax: 57.9 ± 4.24% | EC50: 17.7 nM

Cn1cc(-c2ccc([C@H]3C[C@@]34CCN([C@H](Cc3cnn(C(F)F)c3)C(=O)NC(C)(C)Cn3nc(C(F)(F)F)cc3-c3cn[nH]n3)C4=O)c(Cl)c2)cnc1=O [Example 154, (R)—N-(1-(5-(2H-1,2,3-Triazol-4-yl)-3-(trifluoromethyl)-1H-pyrazol-1-yl)-2-methylpropan-2-yl)-2-((1S,3R)-1-(2-chloro-4-(1-methyl-2-oxo-1,2-dihydropyrimidin-5-yl)phenyl)-4-oxo-5-azaspiro[2.4]heptan-5-yl)-3-(1-(difluoromethyl)-1H-pyrazol-4-yl)propanamide]
Emax: 74.2 ± 2.83% | EC50: 5.24 nM

Cn1cc(C[C@@H](NC(=O)[C@H]2C[C@@H]2c2ccc(-c3cnc4nc(C(F)(F)F)cn4c3)cc2)C(=O)NC(C)(C)Cn2nc(C(F)(F)F)cc2-c2cn[nH]n2)cn1 [Example 26, (1S,2S)-N-((R)-1-((1-(5-(2H-1,2,3-Triazol-4-yl)-3-(trifluoromethyl)-1H-pyrazol-1-yl)-2-methylpropan-2-yl)amino)-3-(1-methyl-1H-pyrazol-4-yl)-1-oxopropan-2-yl)-2-(4-(2-(trifluoromethyl)imidazo [1,2-a]pyrimidin-6-yl)phenyl) cyclopropane-1-carboxamide]
Emax: 132 ± 15.5% | EC50: 17.4 nM

Cn1cc2cc(-c3ccc([C@H]4C[C@@]45CCN([C@H](Cc4cnn(C(F)F)c4)C(=O)NC(C)(C)Cn4nc(C(F)(F)F)cc4-c4ccn(C(F)F)c(=O)c4)C5=O)c(F)c3)cnc2n1 [Example 134, (R)-3-(1-(Difluoromethyl)-1H-pyrazol-4-yl)-N-(1-(5-(1-(difluoromethyl)-2-oxo-1,2-dihydropyridin-4-yl)-3-(trifluoromethyl)-1H-pyrazol-1-yl)-2-methylpropan-2-yl)-2-((1S,3R)-1-(2-fluoro-4-(2-methyl-2H-pyrazolo[3,4-b]pyridin-5-yl)phenyl)-4-oxo-5-azaspiro[2.4]heptan-5-yl)propanamide]
Emax: 57.4 ± 0.103% | EC50: 7.63 nM

Cn1cc2cc(-c3ccc([C@H]4C[C@@]45CCN([C@H](Cc4cnn(C(F)F)c4)C(=O)NC(C)(C)Cn4nc(C(F)(F)F)cc4-c4ccc(=O)n(CC(F)(F)F)c4)C5=O)cc3)cnc2n1 [Example 125, (R)-3-(1-(Difluoromethyl)-1H-pyrazol-4-yl)-N-(2-methyl-1-(5-(6-oxo-1-(2,2,2-trifluoroethyl)-1,6-dihydropyridin-3-yl)-3-(trifluoromethyl)-1H-pyrazol-1-yl)propan-2-yl)-2-((1R,3R)-1-(4-(2-methyl-2H-pyrazolo[3,4-b]pyridin-5-yl)phenyl)-4-oxo-5-azaspiro[2.4]heptan-5-yl)propanamide]
Emax: 68.5 ± 6.59% | EC50: 38.5 nM

Cc1ncc(-c2cc(C(F)(F)F)nn2CC(C)(C)NC(=O)[C@@H](Cc2cnn(C(F)F)c2)NC(=O)[C@H]2C[C@@H]2c2ccc(-c3cnc4nn(C)cc4c3)nc2C(F)(F)F)cn1 [Example 147, (1S,2S)-N—((R)-3-(1-(Difluoromethyl)-1H-pyrazol-4-yl)-1-((2-methyl-1-(5-(2-methylpyrimidin-5-yl)-3-(trifluoromethyl)-1H-pyrazol-1-yl)propan-2-yl)amino)-1-oxopropan-2-yl)-2-(6-(2-methyl-2H-pyrazolo[3,4-b]pyridin-5-yl)-2-(trifluoromethyl)pyridin-3-yl)cyclopropane-1-carboxamide]
Emax: 86.1 ± 9% | EC50: 17.2 nM

Cc1cn2cc(-c3ccc([C@H]4C[C@@]45CCN([C@H](Cc4cnn(C(F)F)c4)C(=O)NC(C)(C)Cc4nc(C(F)(F)F)cn4C4CCN(C)C4=O)C5=O)c(Cl)c3)cnc2n1 (single isomer, unassigned; isomer 1) [Example 177]
Emax: 115 ± 1.59% | EC50: 0.845 nM

Cn1cc(-c2cc(C(F)(F)F)nn2CC(C)(C)NC(=O)[C@@H](Cc2cnn(C(F)F)c2)N2CC[C@@]3(C[C@@H]3c3ccc(-c4cnc5nc(C(C)(C)O)ccc5c4)cc3)C2=O)ccc1=O (single isomer, unassigned; isomer 1) [Example 104]
Emax: 89 ± 1.12% | EC50: 54.6 nM

Cn1cc(C[C@@H](NC(=O)[C@H]2C[C@@H]2c2ccc(-c3cnc4nn(C)cc4c3)cc2)C(=O)NC(C)(C)Cn2nc(C(F)(F)F)cc2-c2ccn(C[C@H]3C[C@H](F)C3)n2)cn1 [Example 67, (1S,2S)-N—((R)-1-((1-(1-(((trans)-3-fluorocyclobutyl)methyl)-5′-(trifluoromethyl)-1H,2′H-[3,3′-bipyrazol]-2′-yl)-2-methylpropan-2-yl)amino)-3-(1-methyl-1H-pyrazol-4-yl)-1-oxopropan-2-yl)-2-(4-(2-methyl-2H-pyrazolo[3,4-b]pyridin-5-yl)phenyl)cyclopropane-1-carboxamide]
Emax: 115 ± 8.68% | EC50: 45 nM

COc1ccc(-c2ccc([C@H]3C[C@@]34CCN([C@H](Cc3cnn(C(F)F)c3)C(=O)NC(C)(C)Cn3nc(C(F)(F)F)cc3-c3ccn(C5CC5)c(=O)c3)C4=O)c(C)n2)cn1 [Example 172, (R)-N-(1-(5-(1-cyclopropyl-2-oxo-1,2-dihydropyridin-4-yl)-3-(trifluoromethyl)-1H-pyrazol-1-yl)-2-methylpropan-2-yl)-3-(1-(difluoromethyl)-1H-pyrazol-4-yl)-2-((1R,3R)-1-(6′-methoxy-6-methyl-[2,3′-bipyridin]-5-yl)-4-oxo-5-azaspiro[2.4]heptan-5-yl)propanamide]
Emax: 12.6 ± 0.102% | EC50: 3.16 nM

CC(C)(Cn1cc(C(F)(F)F)cn1)NC(=O)[C@@H](Cc1cnc2ncccn12)NC(=O)[C@H]1C[C@@H]1c1ccc(-c2cnc3nc(C4CC(F)(F)C4)cn3c2)cc1 [Example 74, (1S,2S)-2-(4-(2-(3,3-Difluorocyclobutyl)imidazo[1,2-a]pyrimidin-6-yl)phenyl)-N-((R)-3-(imidazo[1,2-a]pyrimidin-3-yl)-1-((2-methyl-1-(4-(trifluoromethyl)-1H-pyrazol-1-yl)propan-2-yl)amino)-1-oxopropan-2-yl)cyclopropane-1-carboxamide]
Emax: 102 ± 3.65% | EC50: 13.6 nM

[2H]C([2H])([2H])n1cc(C[C@H](C(=O)NC(C)(C)Cn2nc(C(F)(F)F)cc2-c2cnc(C(C)(C)O)nc2)N2CC[C@@]3(C[C@@H]3c3ccc(-c4cnc5nc(C)cn5c4)cc3Cl)C2=O)cn1 [Example 187, (R)-2-((1S,3R)-1-(2-chloro-4-(2-methylimidazo[1,2-a]pyrimidin-6-yl)phenyl)-4-oxo-5-azaspiro[2.4]heptan-5-yl)-N-(1-(5-(2-(2-hydroxypropan-2-yl)pyrimidin-5-yl)-3-(trifluoromethyl)-1H-pyrazol-1-yl)-2-methylpropan-2-yl)-3-(1-(methyl-d3)-1H-pyrazol-4-yl)propanamide]
Emax: 84.6 ± 2.33% | EC50: 1.26 nM

[2H]C([2H])([2H])n1cc(C[C@H](C(=O)NC(C)(C)Cn2nc(C(F)(F)F)cc2-c2cnc(C)nc2)N2CCC3(CC3c3ccc(-c4cnc5nn(C)cc5c4)nc3C(F)(F)F)C2=O)cn1 (single isomer, unassigned; isomer 1) [Example 115]
Emax: 87.3 ± 0.526% | EC50: 4.65 nM

Cc1cn2cc(-c3ccc(C4CC45CCN([C@H](Cc4cnn(C(F)F)c4)C(=O)NC(C)(C)Cn4nc(C(F)(F)F)cc4-c4cnc(C)nc4)C5=O)c(C)n3)cnc2n1 (single isomer, unassigned; isomer 1) [Example 110]
Emax: 50.8 ± 1.54% | EC50: 4.34 nM

Cn1cc(C[C@@H](NC(=O)[C@H]2C[C@@H]2c2ccc(-c3cnc4nn(C)cc4c3)cc2)C(=O)NC(C)(C)Cn2nc(C(F)(F)F)cc2-c2ccn(C3CCOC3)n2)cn1 (mixture of isomers) [Example 53, (1S,2S)-N-((R)-1-((2-Methyl-1-(1-((RS)-tetrahydrofuran-3-yl)-5′-(trifluoromethyl)-1H,2′H-[3,3′-bipyrazol]-2′-yl)propan-2-yl)amino)-3-(1-methyl-1H-pyrazol-4-yl)-1-oxopropan-2-yl)-2-(4-(2-methyl-2H-pyrazolo[3,4-b]pyridin-5-yl)phenyl) cyclopropane-1-carboxamide, mixture of 2 diastereomers]
Emax: 123 ± 4.24% | EC50: 22.6 nM

Cn1cc2cc(-c3ccc([C@H]4C[C@@H]4C(=O)N[C@H](Cc4cnc5ncccn45)C(=O)NC(C)(C)Cn4nc(C(F)(F)F)cc4C4CC4)cc3)cnc2n1 [Example 37, (1S,2S)-N-((R)-1-((1-(5-Cyclopropyl-3-(trifluoromethyl)-1H-pyrazol-1-yl)-2-methylpropan-2-yl)amino)-3-(imidazo[1,2-a]pyrimidin-3-yl)-1-oxopropan-2-yl)-2-(4-(2-methyl-2H-pyrazolo[3,4-b]pyridin-5-yl)phenyl) cyclopropane-1-carboxamide]
Emax: 77.4 ± 5.92% | EC50: 10.8 nM
